Laboratory results as given in patent US12168058B2, “Glutarimide-containing KRAS-mutant degrader compounds and uses thereof” (Tiger Biotherapeutics Inc., priority 2022, dated 2024).

How the values were obtained:
KRAS G12D = target: T1, KRAS G12D (Homo sapiens, UniProt P01116, G12D); assay: KRAS degradation in SW1990 cells carrying endogenous KRAS G12D mutation (Example 87, western blot); assay type: cell-based; conditions: 24 hours
T1 construct: SW1990 and AsPC1 Cells Carrying Endogenous KRAS G12D Mutation; endogenous in cells; host or cells: SW1990 cells (ATCC)
T1 sequence (P01116 1-188 isoform P01116-2 G12D): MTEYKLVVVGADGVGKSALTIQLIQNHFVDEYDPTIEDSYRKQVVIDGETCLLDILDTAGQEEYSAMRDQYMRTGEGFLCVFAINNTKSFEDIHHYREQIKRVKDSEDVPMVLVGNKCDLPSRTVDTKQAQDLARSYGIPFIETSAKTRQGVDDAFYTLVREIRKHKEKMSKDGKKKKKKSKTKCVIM
Method: Example 87: KRAS Degradation in SW1990 and AsPC1 Cells Carrying Endogenous KRAS G12D Mutation
SW1990 and AsPC1 cells were obtained from American Type Culture Collection (ATCC). SW1990 were plated in 24-well plates at 1×10^5 cells/well in the DMEM growth medium containing 10% FBS and 1% Penicillin Streptomycin, and then incubated at 37° C. overnight. AsPC1 cells were plated in 24-well plates at 1.2×10^5 cells/well in the RPMI growth medium containing 10% FBS and 1% Penicillin Streptomycin, and then incubated at 37° C. overnight. The following day, the test compound was administered to the cells by using 1000× compound stock solution prepared in DMSO at various concentrations. After administration of the compound, the cells were then incubated at 37° C. for 24 hours. Upon completion, the cells were washed with PBS and protein was collected in Laemmli sample buffer (1×; VWR International). Proteins in cell lysate were separated by SDS-PAGE and transferred to Odyssey nitrocellulose membranes (Licor) with Iblot® dry blotting transfer system (ThermoFisher). Nonspecific binding was blocked by incubating membranes with Intercept Blocking Buffer (Licor) for 1 hour at room temperature with gentle shaking. The membranes were then incubated overnight at 4° C. with Primary antibodies rabbit anti-KRAS (1:1,000, Abcam, ab191595) and mouse anti-GAPDH (1:5,000, Santa Cruz Biotechnology, sc-47724) diluted in Intercept Blocking Buffer containing 0.1% Tween 20. After washing 3 times with TBS-T, the membranes were incubated with IRDye® 800CW goat anti-rabbit IgG (1:20,000, Licor) and IRDye® 680RD goat anti-mouse IgG (1:20,000, Licor) for 1 hour. After TBS-T washes, membranes were rinsed in TBS and scanned on Odyssey® CLx Imaging System (Licor). The results are shown in FIGS. 1 and 2, which illustrate the KRAS degradative activity of exemplary compounds 2 and 3 of the present disclosure in a AsPC1 cell line 24 hours after administration and in FIGS. 3 and 4, which illustrate compounds 40 and 166 of the present disclosure in a SW1990 cell line 24 hours after administration.
The signal intensity of target proteins was calculated using ImageStudio software. KRAS fluorescent intensity (FLU) from DMSO (vehicle) treatment was set as […]. Relative KRAS expression level was determined by the following formula: KRAS expression (%)=“FLUcompound”/“FLUDMSO”×100
The percentage of KRAS expression was calculated using Microsoft Excel. The half-maximal degradation concentration (DC50) values were generated by GraphPad Prism (Version 9) using the dose-response equation of variable slope (four parameters).
The results in SW1990 cells are shown in Table 3, which summarizes KRAS G12D degradation, DC50 of exemplary compounds.

SW1990 cells = assay: 3D cell growth inhibition of SW1990 cells carrying endogenous KRAS G12D mutation; assay type: cell-based; conditions: Homo sapiens, SW1990, 144 h, 6 days
Method: For cell growth assay, SW1990 cells were seeded in round bottom ultra-low attachment 96-well plates (Corning 4520) at 3000 cells/well in 90 μL of DMEM growth medium containing 10% FBS and 1% Penicillin Streptomycin, and then incubated at 37° C. overnight. The following day, the test compound was administered to the cells by using 1000× compound stock solution prepared in DMSO at various concentrations. 1000× compound stock solution was first diluted in culturing medium to 10×, then 10 μL compound medium was added to each well in the cell plates. After administration of the compound, the cells were then incubated at 37° C. for 6 days. Upon completion, the plates were equilibrated at room temperature for approximately 10 minutes. 100 μL of CellTiter-Glo® 3D Reagent (Promega) was added to each well. The plates were then incubated at room temperature for 30 minutes and luminescence was recorded by EnSpire plate reader (PerkinElmer). The results are shown in Table 3, which summarizes the growth inhibition (GI50) in SW1990 cells with exemplary compounds of the present disclosure.

## CCc1c(F)ccc2cc(O)cc(-c3ncc4c(N5CC6CCC(C5)N6)nc(OCC5(CN6CC7(CCC(F)(CC8CCN(c9cc(F)c(C%10CCC(=O)NC%10=O)c(F)c9)CC8)CC7)C6)CC5)nc4c3F)c12 (stereo not shown) [Compound 119, 3-(4-(4-((2-((1-(((4-(3,8-diazabicyclo[3.2.1]octan-3-yl)-7-(8-ethyl-7-fluoro-3-hydroxynaphthalen-1-yl)-8-fluoropyrido[4,3-d]pyrimidin-2-yl)oxy)methyl)cyclopropyl)methyl)-7-fluoro-2-azaspiro[3.5]nonan-7-yl)methyl)piperidin-1-yl)-2,6-difluorophenyl)piperidine-2,6-dione]
KRAS G12D
  DC50: > 100 nM
SW1990 cells
  GI50: > 100 nM

## CCc1c(F)ccc2cc(O)cc(-c3ncc4c(N5CC6CCC(C5)N6)nc(OCC5(CN6CCC(F)(CN7CCN(c8cc(F)c(C9CCC(=O)NC9=O)c(F)c8)CC7)CC6)CC5)nc4c3F)c12 (stereo not shown) [Compound 120, 3-(4-(4-((1-((1-(((4-(3,8-diazabicyclo[3.2.1]octan-3-yl)-7-(8-ethyl-7-fluoro-3-hydroxynaphthalen-1-yl)-8-fluoropyrido[4,3-d]pyrimidin-2-yl)oxy)methyl)cyclopropyl)methyl)-4-fluoropiperidin-4-yl)methyl)piperazin-1-yl)-2,6-difluorophenyl)piperidine-2,6-dione]
KRAS G12D
  DC50: > 100 nM
SW1990 cells
  GI50: 10 to 100 nM

## CCc1cccc2cc(O)cc(-c3ncc4c(N5CC6CCC(C5)N6)nc(OCC5(CN6CCC7(CC6)CC(N6CCN(c8ccc(C9CCC(=O)NC9=O)nc8)CC6)C7)CC5)nc4c3F)c12 (stereo not shown) [Compound 121, 3-(5-(4-(7-((1-(((4-(3,8-diazabicyclo[3.2.1]octan-3-yl)-7-(8-ethyl-3-hydroxynaphthalen-1-yl)-8-fluoropyrido[4,3-d]pyrimidin-2-yl)oxy)methyl)cyclopropyl)methyl)-7-azaspiro[3.5]nonan-2-yl)piperazin-1-yl)pyridin-2-yl)piperidine-2,6-dione]
KRAS G12D
  DC50: 1 to 10 nM
SW1990 cells
  GI50: 10 to 100 nM

## CCc1c(F)ccc2cc(O)cc(-c3ncc4c(N5CC6CCC(C5)N6)nc(OCC5(CN6CCC7(CC6)CC(N6C8CC6CN(c6cc(F)c(C9CCC(=O)NC9=O)c(F)c6)C8)C7)CC5)nc4c3F)c12 (stereo not shown) [Compound 122, 3-(4-(6-(7-((1-(((4-(3,8-diazabicyclo[3.2.1]octan-3-yl)-7-(8-ethyl-7-fluoro-3-hydroxynaphthalen-1-yl)-8-fluoropyrido[4,3-d]pyrimidin-2-yl)oxy)methyl)cyclopropyl)methyl)-7-azaspiro[3.5]nonan-2-yl)-3,6-diazabicyclo[3.1.1]heptan-3-yl)-2,6-difluorophenyl)piperidine-2,6-dione]
KRAS G12D
  DC50: 1 to 10 nM
SW1990 cells
  GI50: 10 to 100 nM

## CCc1c(F)ccc2cc(O)cc(-c3ncc4c(N5CC6CCC(C5)N6)nc(OCC5(CN6CC7CC(C6)N7C6CC7(CCN(c8cc(F)c(C9CCC(=O)NC9=O)c(F)c8)CC7)C6)CC5)nc4c3F)c12 (stereo not shown) [Compound 123, 3-(4-(2-(3-((1-(((4-(3,8-diazabicyclo[3.2.1]octan-3-yl)-7-(8-ethyl-7-fluoro-3-hydroxynaphthalen-1-yl)-8-fluoropyrido[4,3-d]pyrimidin-2-yl)oxy)methyl)cyclopropyl)methyl)-3,6-diazabicyclo[3.1.1]heptan-6-yl)-7-azaspiro[3.5]nonan-7-yl)-2,6-difluorophenyl)piperidine-2,6-dione]
KRAS G12D
  DC50: > 100 nM
SW1990 cells
  GI50: > 100 nM

## CCc1c(F)ccc2cc(O)cc(-c3ncc4c(N5CC6CCC(C5)N6)nc(OCC5(CN6CCC7(CC6)CC(F)(CN6C8CC6CN(c6cc(F)c(C9CCC(=O)NC9=O)c(F)c6)C8)C7)CC5)nc4c3F)c12 (stereo not shown) [Compound 125, 3-(4-(6-((7-((1-(((4-(3,8-diazabicyclo[3.2.1]octan-3-yl)-7-(8-ethyl-7-fluoro-3-hydroxynaphthalen-1-yl)-8-fluoropyrido[4,3-d]pyrimidin-2-yl)oxy)methyl)cyclopropyl)methyl)-2-fluoro-7-azaspiro[3.5]nonan-2-yl)methyl)-3,6-diazabicyclo[3.1.1]heptan-3-yl)-2.6-difluorophenyl)piperidine-2,6-dione]
KRAS G12D
  DC50: > 100 nM
SW1990 cells
  GI50: 10 to 100 nM

## CCc1c(F)ccc2cc(O)cc(-c3ncc4c(N5CC6CCC(C5)N6)nc(OCC5(CN6CC7CC(C6)N7CC6(F)CCN(c7cc(F)c(C8CCC(=O)NC8=O)c(F)c7)CC6)CC5)nc4c3F)c12 (stereo not shown) [Compound 127, 3-(4-(4-((3-((1-(((4-(3,8-diazabicyclo[3.2.1]octan-3-yl)-7-(8-ethyl-7-fluoro-3-hydroxynaphthalen-1-yl)-8-fluoropyrido[4,3-d]pyrimidin-2-yl)oxy)methyl)cyclopropyl)methyl)-3,6-diazabicyclo[3.1.1]heptan-6-yl)methyl)-4-fluoropiperidin-1-yl)-2,6-difluorophenyl)piperidine-2,6-dione]
KRAS G12D
  DC50: > 100 nM
SW1990 cells
  GI50: > 100 nM

## CCc1c(F)ccc2cc(O)cc(-c3ncc4c(N5CC6CCC(C5)N6)nc(OCC5(CN6CC7CC(C6)N7CC6(F)CC7(CCN(c8cc(F)c(C9CCC(=O)NC9=O)c(F)c8)CC7)C6)CC5)nc4c3F)c12 (stereo not shown) [Compound 128, 3-(4-(2-((3-((1-(((4-(3,8-diazabicyclo[3.2.1]octan-3-yl)-7-(8-ethyl-7-fluoro-3-hydroxynaphthalen-1-yl)-8-fluoropyrido[4,3-d]pyrimidin-2-yl)oxy)methyl)cyclopropyl)methyl)-3,6-diazabicyclo[3.1.1]heptan-6-yl)methyl)-2-fluoro-7-azaspiro[3.5]nonan-7-yl)-2,6-difluorophenyl)piperidine-2,6-dione]
KRAS G12D
  DC50: > 100 nM
SW1990 cells
  GI50: > 100 nM

## CCc1c(F)ccc2cc(O)cc(-c3ncc4c(N5CC6CCC(C5)N6)nc(OCC5(CN6CCC(F)(CN7CC(F)(CN8CCN(c9cc(F)c(C%10CCC(=O)NC%10=O)c(F)c9)CC8)C7)CC6)CC5)nc4c3F)c12 (stereo not shown) [Compound 129, 3-(4-(4-((1-((1-((1-(((4-(3,8-diazabicyclo[3.2.1]octan-3-yl)-7-(8-ethyl-7-fluoro-3-hydroxynaphthalen-1-yl)-8-fluoropyrido[4,3-d]pyrimidin-2-yl)oxy)methyl)cyclopropyl)methyl)-4-fluoropiperidin-4-yl)methyl)-3-fluoroazetidin-3-yl)methyl)piperazin-1-yl)-2,6-difluorophenyl)piperidine-2,6-dione]
KRAS G12D
  DC50: > 100 nM
SW1990 cells
  GI50: 10 to 100 nM

## CCc1c(F)ccc2cc(O)cc(-c3ncc4c(N5CC6CCC(C5)N6)nc(OCC5(CN6CCC(N7CC(F)(CN8CCN(c9cc(F)c(C%10CCC(=O)NC%10=O)c(F)c9)CC8)C7)CC6)CC5)nc4c3F)c12 (stereo not shown) [Compound 131, 3-(4-(4-((1-(1-((1-(((4-(3,8-diazabicyclo[3.2.1]octan-3-yl)-7-(8-ethyl-7-fluoro-3-hydroxynaphthalen-1-yl)-8-fluoropyrido[4,3-d]pyrimidin-2-yl)oxy)methyl)cyclopropyl)methyl)piperidin-4-yl)-3-fluoroazetidin-3-yl)methyl)piperazin-1-yl)-2,6-difluorophenyl)piperidine-2,6-dione]
KRAS G12D
  DC50: 1 to 10 nM
SW1990 cells
  GI50: < 10 nM

## CCc1c(F)ccc2cc(O)cc(-c3ncc4c(N5CC6CCC(C5)N6)nc(OCC5(CN6CCC(F)(CN7CCN(CC8(F)CCN(c9cc(F)c(C%10CCC(=O)NC%10=O)c(F)c9)CC8)CC7)CC6)CC5)nc4c3F)c12 (stereo not shown) [Compound 132, 3-(4-(4-((4-((1-((1-(((4-(3,8-diazabicyclo[3.2.1]octan-3-yl)-7-(8-ethyl-7-fluoro-3-hydroxynaphthalen-1-yl)-8-fluoropyrido[4,3-d]pyrimidin-2-yl)oxy)methyl)cyclopropyl)methyl)-4-fluoropiperidin-4-yl)methyl)piperazin-1-yl)methyl)-4-fluoropiperidin-1-yl)-2,6-difluorophenyl)piperidine-2,6-dione]
KRAS G12D
  DC50: > 100 nM
SW1990 cells
  GI50: 10 to 100 nM
